Test systems include M14; 786-0; OVCAR-8; SNB-19; A498; NCI-H460; SF-539; KM12; SN12C; HT-29; NCI-H522; A549; NCI-H226; HCT-15; HL-60; HCC 2998; RXF 393; OVCAR-4; UO-31.
Assay in all cases: inhibition of tumour cell growth, NCI panel, 48 h

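48-hour exposure; five concentrations; linearly interpolated endpoints. The concentration for 50% growth inhibition is given as GI50.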 Active and inactive are the calls of the source. Rule as the data show it: active = GI50 up to about 1.1 µM and inactive = higher. A value given as a limit tells only on which side of the number the result lay.

The text below walks through data of ChEMBL document CHEMBL1201862, “PubChem BioAssay data set” (2004).

In the case of `O=C(N/N=C1/C(=O)N(c2ccc(Cl)cc2Cl)C(=O)C(=O)C1c1nc2ccccc2o1)c1ccccc1O` (configuration not stated), the GI50 in the assay on M14 was 28.3 µM (inactive); with 786-0 it was 51.6 µM (inactive); in the assay on OVCAR-8, 60.4 µM (inactive); with SNB-19, 49.7 µM (inactive); in the assay with A498, 31.3 µM (inactive); with NCI-H460, 44.8 µM (inactive). Moreover, the GI50 was 29.4 µM (inactive) in the assay on SF-539; 42.4 µM (inactive) in the assay with KM12; 33.8 µM (inactive) with SN12C; 60.7 µM (inactive) with HT-29; 30.8 µM (inactive) in the assay on NCI-H522; 33 µM (inactive) with A549. The results for the GI50 with NCI-H226 and in the assay with HCT-15 were > 100 µM (inactive) and 37.8 µM, respectively.
Regarding `COc1cc(O)c(C(=O)CC(C)=O)c(OC)c1`, the GI50 with M14, in the assay on 786-0, in the assay on HL-60, in the assay with OVCAR-8, with SNB-19 and with NCI-H460 was > 100 µM (inactive) each time. Further, the GI50 with SF-539, with KM12, in the assay with HCC 2998, with SN12C, in the assay on RXF 393 and in the assay with HT-29 was > 100 µM (inactive) in each case. Also, the GI50 in the assay on OVCAR-4, in the assay on NCI-H522, with UO-31, with A549 and in the assay on NCI-H226 was > 100 µM (inactive) in each case.
Consider `C=C1C(=O)OC2(C)C3CCC(C3)C12` (configuration not stated), for which the GI50 in the assay on M14 was 27.7 µM (inactive); in the assay with 786-0, 47.9 µM (inactive); in the assay with HL-60, 19.9 µM (inactive); in the assay with OVCAR-8, 36 µM (inactive); in the assay with SNB-19, > 100 µM (inactive); with NCI-H460, 33 µM (inactive). Also, the GI50 was 98.2 µM (inactive) in the assay with SF-539; 43.4 µM (inactive) in the assay on KM12; 66.1 µM (inactive) with HCC 2998; 57.8 µM (inactive) in the assay with SN12C; 34.9 µM (inactive) with HT-29; 54.5 µM (inactive) with OVCAR-4. Further, the GI50 with NCI-H522 is 21.7 µM (inactive); in the assay on UO-31, > 100 µM (inactive); in the assay with A549, > 100 µM (inactive); in the assay with NCI-H226, > 100 µM (inactive); in the assay on HCT-15, 60.7 µM.
Regarding `O=C(CSC(=S)N1CCOCC1)Nc1nc2c(s1)CCCC2`, the GI50 in the assay with M14 was > 100 µM (inactive); in the assay with 786-0, 90.2 µM (inactive); with HL-60 it was 27.7 µM (inactive); in the assay with OVCAR-8 it was > 100 µM (inactive); in the assay on A498 it was > 100 µM (inactive); in the assay on NCI-H460, > 100 µM (inactive). For the same molecule, the GI50 with SF-539 was > 100 µM (inactive); in the assay on KM12 it was > 100 µM (inactive); with HCC 2998 it was 24.1 µM (inactive); in the assay on SN12C, > 100 µM (inactive); with HT-29 it was > 100 µM (inactive); in the assay on OVCAR-4, > 100 µM (inactive). Moreover, the GI50 is 27.8 µM (inactive) in the assay with NCI-H522; 41.4 µM (inactive) in the assay on UO-31; > 100 µM (inactive) in the assay on A549; > 100 µM (inactive) with NCI-H226; over 100 µM with HCT-15.
For `O=c1ccc2ccc(O)c3c4c(O)ccc5ccc(=O)c(c1c23)c54`, the GI50 is 1.6 µM (inactive) in the assay with M14; 2.31 µM (inactive) in the assay with 786-0; 1.09 µM (active) with HL-60; 1.46 µM (inactive) in the assay on OVCAR-8; 2.18 µM (inactive) with SNB-19; 3.56 µM (inactive) in the assay with NCI-H460. Moreover, the GI50 was 1.69 µM (inactive) with SF-539; 1.24 µM (inactive) with KM12; 2.08 µM (inactive) with SN12C; 1.17 µM (inactive) in the assay with RXF 393; 4.27 µM (inactive) in the assay on HT-29; 1.45 µM (inactive) with NCI-H522. In addition, the GI50 in the assay on UO-31 was 1.65 µM (inactive); in the assay with A549, 2.95 µM (inactive); in the assay on NCI-H226, 2.04 µM (inactive); with HCT-15, 1.26 µM.
For `COC(=O)C1(C)C=C(Nc2ccccc2)C(=O)N1c1ccccc1` (configuration not stated), the GI50 in the assay with M14, with 786-0, in the assay with HL-60, with OVCAR-8, in the assay on SNB-19 and in the assay with NCI-H460 was > 100 µM (inactive) each time. Also, the GI50 in the assay with SF-539, in the assay on KM12, with HCC 2998, in the assay on SN12C, with RXF 393 and in the assay on HT-29 was > 100 µM (inactive) each time. Also, the GI50 in the assay on OVCAR-4 was > 100 µM (inactive); in the assay with NCI-H522, > 100 µM (inactive); in the assay with UO-31, 58.3 µM (inactive); in the assay on A549, > 100 µM (inactive); in the assay on NCI-H226, > 100 µM (inactive).
On to `N#CCCN(CCC#N)c1ccc(/C=N\c2nc(-c3ccccc3)cs2)cc1`, for which the GI50 in the assay on M14, in the assay on 786-0, with HL-60, with OVCAR-8, in the assay on SNB-19 and in the assay on A498 was > 100 µM (inactive) each time. Moreover, the GI50 in the assay on NCI-H460 was > 100 µM (inactive); in the assay on SF-539 it was > 100 µM (inactive); with SN12C it was > 100 µM (inactive); in the assay with RXF 393, 39.7 µM (inactive); in the assay on HT-29, > 100 µM (inactive); in the assay with OVCAR-4, 63.4 µM (inactive). In addition, the GI50 in the assay on NCI-H522 is 49.3 µM (inactive); in the assay with UO-31 it was > 100 µM (inactive); with A549, > 100 µM (inactive); with NCI-H226 it was > 100 µM (inactive); in the assay with HCT-15, over 100 µM.
Regarding `COc1cc(CNC2=NCCC2)cc(OC)c1OC`, the GI50 with M14, in the assay on 786-0, in the assay with HL-60, with OVCAR-8, with SNB-19 and with NCI-H460 was > 100 µM (inactive) each time. Further, the GI50 was > 100 µM (inactive) in the assay with SF-539; > 10 µM (inactive) in the assay on KM12; > 100 µM (inactive) with HCC 2998; > 100 µM (inactive) in the assay on SN12C; > 100 µM (inactive) in the assay with RXF 393; > 100 µM (inactive) in the assay with HT-29. The GI50 in the assay with OVCAR-4 is > 100 µM (inactive); in the assay with NCI-H522 it was > 100 µM (inactive); with UO-31, > 100 µM (inactive); in the assay with A549, > 100 µM (inactive); in the assay on NCI-H226, > 100 µM (inactive); with HCT-15, over 100 µM.
As for `O=[N+]([O-])c1cccc(Nc2nc(Cl)nc(Cl)n2)c1`, the GI50 in the assay on M14, with 786-0, with OVCAR-8, in the assay with SNB-19, with NCI-H460 and in the assay with SF-539 was > 100 µM (inactive) each time. The GI50 was > 100 µM (inactive) in the assay on KM12; > 100 µM (inactive) in the assay on HCC 2998; > 100 µM (inactive) with SN12C; > 100 µM (inactive) with HT-29; 34.4 µM (inactive) in the assay on OVCAR-4; > 100 µM (inactive) in the assay with NCI-H522. The GI50 is > 100 µM (inactive) with UO-31, > 100 µM (inactive) with A549, > 100 µM (inactive) in the assay on NCI-H226 and over 100 µM in the assay on HCT-15.
Consider `COc1ccccc1-c1cc(=O)c2ccccc2[nH]1`, for which the GI50 is 99.8 µM (inactive) in the assay with M14; > 100 µM (inactive) in the assay with 786-0; 43.8 µM (inactive) in the assay with HL-60; > 100 µM (inactive) in the assay on OVCAR-8; > 100 µM (inactive) with SNB-19; > 100 µM (inactive) with NCI-H460. For the same molecule, the GI50 in the assay on SF-539 is > 100 µM (inactive); in the assay with KM12, 63.7 µM (inactive); in the assay with HCC 2998, 72.6 µM (inactive); with SN12C, > 100 µM (inactive); in the assay on RXF 393, > 100 µM (inactive); with NCI-H522, 33.9 µM (inactive). The GI50 with UO-31 is 60.7 µM (inactive); with A549, 54.3 µM (inactive); in the assay on NCI-H226 it was 70.1 µM (inactive); in the assay with HCT-15 it was 55.1 µM.
On to `Oc1ccc2c(c1)CC[N+]1=C2CCC2CCCC21` (configuration not stated) [QUINDONIUM BROMIDE], for which the GI50 in the assay with M14, with 786-0, with OVCAR-8, in the assay with SNB-19, in the assay on NCI-H460 and with SF-539 was > 100 µM (inactive) throughout. Moreover, the GI50 in the assay with HCC 2998, in the assay with SN12C, in the assay on RXF 393, in the assay on HT-29, in the assay with OVCAR-4 and in the assay on UO-31 was > 100 µM (inactive) in each case. The GI50 is > 100 µM (inactive) with A549, > 100 µM (inactive) in the assay with NCI-H226 and over 100 µM in the assay on HCT-15.
As to `O=S(O)CCCSSCCCCSSCCCS(=O)O`, the GI50 in the assay on M14, in the assay with 786-0, in the assay on OVCAR-8, with SNB-19, in the assay on A498 and in the assay with NCI-H460 was > 100 µM (inactive) throughout. Also, the GI50 in the assay on SF-539, in the assay on KM12, with HCC 2998, in the assay with SN12C, with RXF 393 and with HT-29 was > 100 µM (inactive) throughout. The GI50 in the assay with OVCAR-4 is > 100 µM (inactive); in the assay with NCI-H522 it was > 100 µM (inactive); with UO-31, > 100 µM (inactive); in the assay with A549, > 100 µM (inactive); in the assay on HCT-15 it was over 100 µM.
